Test results taken from patent US20240409585A1, “MACROCYCLIC IMMUNOMODULATORS” (priority 2021, published 2024).
Numbered stars: 1 amine (or outer) side, 2 acyl side, 3 side chain; on linkers, the order of the positions; unused ones are H or OH. Bridge positions count the residues as written; N and C are the ends. Square brackets hold non-standard residues; d marks the D form. Peptide text beside a SMILES is read from it. * marks the point of attachment. ξ: configuration not given here. X16 = O=C([C@H](Cc1ccc2cnccc2c1)N[*:1])[*:2]; Bip = N[C@@H](Cc1ccc(-c2ccccc2)cc1)C(=O)O; Phe(3-CN) = N#Cc1cccc(C[C@H](N)C(=O)O)c1; Phe(4-CN) = N#Cc1ccc(C[C@H](N)C(=O)O)cc1; Phe(3-Me) = Cc1cccc(C[C@H](N)C(=O)O)c1; ξPhe(2-Me) = Cc1ccccc1CC(N)C(=O)O; 4Pal = N[C@@H](Cc1ccncc1)C(=O)O; Cha = N[C@@H](CC1CCCCC1)C(=O)O; Cit = NC(=O)NCCC[C@H](N)C(=O)O; Ile(3ξ) = CCC(C)[C@H](N)C(=O)O; Thr(3ξ) = CC(O)[C@H](N)C(=O)O; ξCha = NC(CC1CCCCC1)C(=O)O; Carboxymethyl = O=C(O)C*; NMeA = CN[C@@H](C)C(=O)O; Dab = NCC[C@H](N)C(=O)O; Nva = CCC[C@H](N)C(=O)O; Dap = NC[C@H](N)C(=O)O; Ac3c = NC1(C(=O)O)CC1

Target: T1, PE-labeled human PD-L1-Ig binding to Jurkat cell line over-expressing human PD-1 (Jurkat-PD-1) (Homo sapiens, UniProt Q15116)
T1 construct: expressed in transfected cells; host or cells: Jurkat
T1 sequence (Q15116 25-288): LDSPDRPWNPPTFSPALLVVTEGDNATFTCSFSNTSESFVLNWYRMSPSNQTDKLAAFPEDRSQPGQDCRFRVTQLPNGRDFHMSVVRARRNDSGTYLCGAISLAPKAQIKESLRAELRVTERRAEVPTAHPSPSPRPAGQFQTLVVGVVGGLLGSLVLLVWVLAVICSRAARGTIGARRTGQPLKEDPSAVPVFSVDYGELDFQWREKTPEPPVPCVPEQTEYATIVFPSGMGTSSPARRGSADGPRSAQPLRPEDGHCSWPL
Experiment: Jurkat-PD-1 Cell Binding High-Content Screening Assay (CBA): Method 1
Details: Jurkat-hPD-1 cells, PE-labeled PD-L1-Ig 20 nM final; read-out: Jurkat HPDL1 PD1 IC50 (uM) (Method 1)

| IC50 [µM] | SMILES |
| --- | --- |
| 0.04 | CC(C)C[C@@H]1NC(=O)[C@H](CCCNC(=N)N)NC(=O)[C@@H](CC(C)C)NC(=O)[C@H](C)N(C)C(=O)[C@H](CCCNC(=N)N)NC(=O)[C@H](Cc2ccc(-c3ccccc3)cc2)NC(=O)[C@H](C(C)C)NC(=O)[C@H](Cc2c[nH]c3ccccc23)NC(=O)[C@H](CC(=O)O)NC(=O)[C@H](Cc2ccc(O)cc2)NC(=O)[C@H](Cc2ccccc2)NC(=O)CSC[C@@H](C(=O)NCC(N)=O)NC(=O)[C@H](CO)NC(=O)[C@H](C(C)C)NC1=O [Compound 1017] ({CH2CO}-FYDWV[Bip]R[NMeA][dL]RLVSCG-NH2; thioether N-14) |
| 0.12 | CCC(C)[C@@H]1NC(=O)[C@H](Cc2ccc(-c3ccccc3)cc2)NC(=O)[C@H](C(C)C)NC(=O)[C@H](Cc2c[nH]c3ccccc23)NC(=O)[C@H](CC(N)=O)NC(=O)[C@H](Cc2ccc(OCC(=O)O)cc2)NC(=O)[C@H](Cc2ccncc2)NC(=O)CSC[C@@H](C(=O)N[C@@H](C)C(=O)N[C@@H](CCCCN)C(N)=O)NC(=O)[C@H](C(C)O)NC(=O)[C@H](C(C)C)NC(=O)C(CC2CCCCC2)NC(=O)[C@H](CC(N)=O)NC(=O)[C@@H](CC(C)C)NC(=O)[C@H](C)N(C)C1=O (stereo partly drawn) [Compound 2018] ({CH2CO}-[4Pal]Y(Carboxymethyl)NWV[Bip][Ile(3ξ)][NMeA][dL]N[ξCha]V[Thr(3ξ)]CAK-NH2; thioether N-14) |
| 0.14 | CCC[C@@H]1NC(=O)[C@H](CCCNC(=N)N)NC(=O)[C@@H](CC(C)C)NC(=O)[C@H](C)N(C)C(=O)[C@H](CCCNC(=N)N)NC(=O)[C@H](Cc2ccc(-c3ccccc3)cc2)NC(=O)[C@H](C(C)C)NC(=O)[C@H](Cc2c[nH]c3ccccc23)NC(=O)[C@H](CC(=O)O)NC(=O)[C@H](Cc2ccc(O)cc2)NC(=O)[C@H](Cc2ccccc2)NC(=O)CSC[C@@H](C(=O)N[C@@H](C)C(N)=O)NC(=O)[C@H]([C@@H](C)O)NC(=O)[C@H](C(C)C)NC1=O [Compound 1113] ({CH2CO}-FYDWV[Bip]R[NMeA][dL]R[Nva]VTCA-NH2; thioether N-14) |
| 0.11 | Cc1ccccc1CC1NC(=O)[C@H](C)N(C)C(=O)[C@H](CCCNC(=N)N)NC(=O)[C@H](Cc2ccc(-c3ccccc3)cc2)NC(=O)[C@H](C(C)C)NC(=O)[C@H](Cc2c[nH]c3ccccc23)NC(=O)[C@H](CC(=O)O)NC(=O)[C@H](Cc2ccc(O)cc2)NC(=O)[C@H](Cc2ccccc2)NC(=O)CSC[C@@H](C(=O)N[C@@H](C)C(N)=O)NC(=O)[C@H]([C@@H](C)O)NC(=O)[C@H](C(C)C)NC(=O)[C@H](CC(C)C)NC(=O)[C@H](CCCNC(=N)N)NC1=O (some centres unmarked) [Compound 1065] ({CH2CO}-FYDWV[Bip]R[NMeA][ξPhe(2-Me)]RLVTCA-NH2; thioether N-14) |
| 0.06 | CC(C)C[C@@H]1NC(=O)[C@H](CCN)NC(=O)[C@@H](CC(C)C)NC(=O)[C@H](C)N(C)C(=O)[C@H](CCCNC(=N)N)NC(=O)[C@H](Cc2ccc(-c3ccccc3)cc2)NC(=O)[C@H](C(C)C)NC(=O)[C@H](Cc2c[nH]c3ccccc23)NC(=O)[C@H](CC(=O)O)NC(=O)[C@H](Cc2ccncc2)NC(=O)[C@H](CC(N)=O)NC(=O)CSC[C@@H](C(=O)N[C@@H](C)C(N)=O)NC(=O)[C@H]([C@@H](C)O)NC(=O)[C@H](C(C)C)NC1=O [Compound 1146] ({CH2CO}-N[4Pal]DWV[Bip]R[NMeA][dL][Dab]LVTCA-NH2; thioether N-14) |
| 0.04 | Cc1cccc(C[C@@H]2NC(=O)[C@H](CC(=O)O)NC(=O)[C@H](Cc3ccc(OCC(=O)O)cc3)NC(=O)[C@H]([C@@H](C)O)NC(=O)CSC[C@@H](C(=O)NC3(C(N)=O)CC3)NC(=O)[C@H](CO)NC(=O)[C@H](C(C)C)NC(=O)[C@H](CC3CCCCC3)NC(=O)[C@H](CCN)NC(=O)[C@@H](CC(C)C)NC(=O)[C@H](C)N(C)C(=O)[C@H](Cc3ccc(OCC(=O)O)cc3)NC(=O)[C@H](Cc3ccc(-c4ccccc4)cc3)NC(=O)[C@H](Cc3ccc(OCC(=O)O)cc3)NC2=O)c1 [Compound 1862] ({CH2CO}-TY(Carboxymethyl)D[Phe(3-Me)]Y(Carboxymethyl)[Bip]Y(Carboxymethyl)[NMeA][dL][Dab][Cha]VSC[Ac3c]-NH2; thioether N-14) |
| 0.14 | CC(C)C[C@@H]1NC(=O)CSC[C@@H](C(=O)N[C@@H](C)C(N)=O)NC(=O)[C@H](CO)NC(=O)[C@H](C(C)C)NC(=O)[C@H](CC(C)C)NC(=O)[C@H](CCCNC(=N)N)NC(=O)[C@@H](CC(C)C)NC(=O)[C@H](C)N(C)C(=O)[C@H](CCCNC(=N)N)NC(=O)[C@H](Cc2ccc(-c3ccccc3)cc2)NC(=O)[C@H](C(C)C)NC(=O)[C@H](Cc2c[nH]c3ccccc23)NC(=O)[C@H](CC(=O)O)NC(=O)[C@H](Cc2ccc(O)cc2)NC1=O [Compound 1037] ({CH2CO}-LYDWV[Bip]R[NMeA][dL]RLVSCA-NH2; thioether N-14) |
| 0.02 | CC(C)C[C@@H]1NC(=O)[C@H](CCN)NC(=O)[C@@H](CC(C)C)NC(=O)[C@H](C)N(C)C(=O)[C@H](CCCNC(N)=O)NC(=O)[C@H](Cc2ccc(-c3ccccc3)cc2)NC(=O)[C@H](C(C)C)NC(=O)[C@H](Cc2c[nH]c3ccccc23)NC(=O)[C@H](CC(=O)O)NC(=O)[C@H](Cc2ccc(O)cc2)NC(=O)[C@H](Cc2ccc3cnccc3c2)NC(=O)CSC[C@@H](C(=O)N[C@@H](C)C(N)=O)NC(=O)[C@H](C(C)O)NC(=O)[C@H](C(C)C)NC1=O (stereo partly drawn) [Compound 2037] ({CH2CO}-[X16]YDWV[Bip][Cit][NMeA][dL][Dab]LV[Thr(3ξ)]CA-NH2; thioether N-14) |
| 0.02 | CC(C)C[C@@H]1NC(=O)[C@H](CCN)NC(=O)[C@@H](CC(C)C)NC(=O)[C@H](C)N(C)C(=O)[C@H](Cc2cnc[nH]2)NC(=O)[C@H](Cc2ccc(-c3ccccc3)cc2)NC(=O)[C@H](C(C)C)NC(=O)[C@H](Cc2c[nH]c3ccccc23)NC(=O)[C@H](CC(=O)O)NC(=O)[C@H](Cc2ccc(O)cc2)NC(=O)[C@H](CC(N)=O)NC(=O)CSC[C@@H](C(=O)N[C@@H](C)C(N)=O)NC(=O)[C@H]([C@@H](C)O)NC(=O)[C@H](C(C)C)NC1=O [Compound 1302] ({CH2CO}-NYDWV[Bip]H[NMeA][dL][Dab]LVTCA-NH2; thioether N-14) |
| 0.08 | CC(C)C[C@@H]1NC(=O)[C@H](CCN)NC(=O)[C@@H](CC(C)C)NC(=O)[C@H](C)N(C)C(=O)[C@H](CCCNC(=N)N)NC(=O)[C@H](Cc2ccc(-c3ccccc3)cc2)NC(=O)[C@H](C(C)C)NC(=O)[C@H](Cc2c[nH]c3ccccc23)NC(=O)[C@H](CC(=O)O)NC(=O)[C@H](Cc2ccc(C#N)cc2)NC(=O)[C@H](Cc2ccncc2)NC(=O)CSC[C@@H](C(=O)N[C@@H](C)C(N)=O)NC(=O)[C@H]([C@@H](C)O)NC(=O)[C@H](C(C)C)NC1=O [Compound 1446] ({CH2CO}-[4Pal][Phe(4-CN)]DWV[Bip]R[NMeA][dL][Dab]LVTCA-NH2; thioether N-14) |
| 0.06 | CC(C)C[C@@H]1NC(=O)[C@H](CCN)NC(=O)[C@@H](CC(C)C)NC(=O)[C@H](C)N(C)C(=O)[C@H](C(C)C)NC(=O)[C@H](Cc2ccc(-c3ccccc3)cc2)NC(=O)[C@H](C(C)C)NC(=O)[C@H](Cc2c[nH]c3ccccc23)NC(=O)[C@H](CC(=O)O)NC(=O)[C@H](Cc2cccc(C#N)c2)NC(=O)[C@H](CN)NC(=O)CSC[C@@H](C(=O)N[C@@H](C)C(N)=O)NC(=O)[C@H]([C@@H](C)O)NC(=O)[C@H](C(C)C)NC1=O [Compound 1436] ({CH2CO}-[Dap][Phe(3-CN)]DWV[Bip]V[NMeA][dL][Dab]LVTCA-NH2; thioether N-14) |
